Experimental data published in patent publication US20240158348A1, “HERBICIDAL CYCLIC AMIDES N-SUBSTITUTED WITH A HALOALKYLSULFONYLANILIDE GROUP” (FMC Corporation, priority 2021, published 2024).

Key:
Format in all cases: in vivo
[1] = system: horseweed (Erigeron canadensis); experiment: Test C postemergence, horseweed; settings: for Horseweed plant response rating: 31 g ai/ha Postemergence, visual injury, 0 to 100 scale (0 no effect, 100 complete control); for Plant response rating (0 to 100 scale), Horseweed: 125 g ai/ha Postemergence, 0 is no effect, 100 is complete control
Summary of the method: (§1)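 Steps: sow in loam soil blended with sand; treat soil preemergence by directed spray, or treat young plants (2–10 cm, one to two leaves) postemergence; hold in greenhouse 10 or 12 days; rate injury visually relative to untreated controls on a 0–100 scale.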

corn (Zea mays) = experiment: Test C preemergence, corn; settings: 0 is no effect, 100 is complete control
Summary of the method: (§2)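 Plants grown in a sand and loam soil blend received the formulated test chemicals either as a preemergence soil-directed spray or postemergence at 2 to 10 cm height. After 10 or 12 greenhouse days, injury was assessed visually, with 100 meaning complete control.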

[2] = system: blackgrass (Alopecurus myosuroides); experiment: Test C preemergence, blackgrass; settings: 0 is no effect, 100 is complete control
Summary of the method: as §1

[3] = system: oat, wild (wild oat, Avena fatua); experiment: Test C preemergence, wild oat; settings: 0 is no effect, 100 is complete control
Summary of the method: as §1

[4] = system: wheat (Triticum aestivum); experiment: Test C preemergence, wheat; settings: 0 is no effect, 100 is complete control
[5] = system: pigweed, palmer (palmer amaranth, Amaranthus palmeri); experiment: Test C preemergence, palmer amaranth; settings: 0 is no effect, 100 is complete control
Summary of the method: as §1

[6] = system: galium (catchweed bedstraw, Galium aparine); experiment: Test C postemergence, galium; settings: for Galium plant response rating: 31 g ai/ha Postemergence, visual injury, 0 to 100 scale (0 no effect, 100 complete control); for Plant response rating (0 to 100 scale), Galium: 125 g ai/ha Postemergence, 0 is no effect, 100 is complete control
[7] = system: ryegrass, Italian (Italian ryegrass, Lolium multiflorum); experiment: Test C preemergence, Italian ryegrass; settings: 0 is no effect, 100 is complete control
Summary of the method: as §1

[8] = system: goosegrass (Eleusine indica); experiment: Test C preemergence, goosegrass; settings: 0 is no effect, 100 is complete control
Summary of the method: as §2

Structure (SMILES)	Horseweed plant response rating [1]	Plant response rating (0 to 100 scale), Horseweed [1]	Plant response rating (0 to 100 scale), Corn (corn (Zea mays); 31 g ai/ha Preemergence)	Plant response rating (0 to 100 scale), Corn (corn (Zea mays); 125 g ai/ha Preemergence)	Plant response rating (0 to 100 scale), Blackgrass ([2]; 31 g ai/ha Preemergence)	Plant response rating (0 to 100 scale), Blackgrass ([2]; 125 g ai/ha Preemergence)	Plant response rating (0 to 100 scale), Oat, Wild ([3]; 31 g ai/ha Preemergence)	Plant response rating (0 to 100 scale), Oat, Wild ([3]; 125 g ai/ha Preemergence)	Plant response rating (0 to 100 scale), Wheat ([4]; 31 g ai/ha Preemergence)	Plant response rating (0 to 100 scale), Wheat ([4]; 125 g ai/ha Preemergence)	Plant response rating (0 to 100 scale), Pigweed, Palmer ([5]; 31 g ai/ha Preemergence)	Plant response rating (0 to 100 scale), Pigweed, Palmer ([5]; 125 g ai/ha Preemergence)	Galium plant response rating [6]	Plant response rating (0 to 100 scale), Galium [6]	Plant response rating (0 to 100 scale), Ryegrass, Italian ([7]; 31 g ai/ha Preemergence)	Plant response rating (0 to 100 scale), Ryegrass, Italian ([7]; 125 g ai/ha Preemergence)	Plant response rating (0 to 100 scale), Goosegrass ([8]; 31 g ai/ha Preemergence)	Plant response rating (0 to 100 scale), Goosegrass ([8]; 125 g ai/ha Preemergence)
CC(=O)N(c1cc(N2CCC(OC3CC3)C2=O)c(C)cc1C)S(=O)(=O)C(F)(F)F (centres unmarked) [Compound 17]	70	100	70	90	80	90	90	100	30	100	80	100	90	100	100	100	100	100
CCCC(=O)OCN(c1cc(N2CCC(OC3CC3)C2=O)c(C)cc1C)S(=O)(=O)C(F)(F)F (centres unmarked) [Compound 20]	60	90	60	90	80	100	60	100	70	100	90	100	90	100	100	100	100	100
Cc1cc(C)c(N2CCC(OCC3CC3)C2=O)cc1NS(=O)(=O)C(F)(F)F (centres unmarked) [Compound 22]	90	90	90	90	50	90	90	100	90	100	100	100	100	100	100	100	100	100
Cc1c(N2CCC(OC3CC3)C2=O)cc(N(COC(=O)C(C)(C)C)S(=O)(=O)C(F)(F)F)c(C)c1F (centres unmarked) [Compound 23]	80	90	10	20	0	10	40	90	10	30	30	100	90	100	30	100	70	100
Cc1c(NS(=O)(=O)C(F)(F)F)cc(N2CCC(OC3CCC3)C2=O)c(C)c1F (centres unmarked) [Compound 25]	–	–	30	90	80	90	40	90	60	100	100	100	100	100	90	100	90	100
Cc1c(N2CCC(OC3CCC3)C2=O)cc(N(COC(=O)C(C)(C)C)S(=O)(=O)C(F)(F)F)c(C)c1F (centres unmarked) [Compound 28]	–	–	0	20	50	60	0	20	20	30	30	80	90	100	30	90	70	100
